Reference: patent US20240041976A1, “COMPOSITION AND USE” (priority 2020, published 2024)
Where two headings read alike, the source gives them in different places. No end group written: not given here.

Tests used:
[1] = tested on: S. aureus ATTC 10832 biofilm; experiment: Biofilm-oriented antimicrobial test (BOAT), MIC50 in biofilms; format: cell-based, Staphylococcus aureus; conditions: for MIC50: individual component
Experimental: (§1) Synergistic interactions between antimicrobials were determined using the fractional inhibition concentration (FIC). The FIC values were calculated as follows: the sum of the FIC =FICa+FICb+FICc, where the FICa means MIC of A in combination/MIC of A alone, FICb means MIC of B in combination/MIC of B, and FICc means MIC of C in combination/MIC of C alone. Effects were considered as synergistic if FIC was ≤0.5 for two components mixture and ≤0.75 for three components mixture.
(§2) Staphylococcus aureus strains were inoculated in 5 ml of TSB and incubated O/N at 37° C. Ten μl of the O/N cultures were then inoculated in 90 μl of TSB supplemented with 1% glucose and 1% NaCl (TSB-GN) in the appropriate wells of a 96-well microtiter plate (Sarstedt) to a final volume of 100 μl. The plates were then incubated at 37° C. for 24 h. After the incubation, the presence of the biofilm at the bottom of the wells was assessed visually.
(§3) The BOAT assay was performed as described previously (Gronseth et al., 2017, Int. J. Pediatr. Otorhinolaryngol., Vol. 103, p 58-64) with some modifications. The serial dilutions of the antimicrobials were prepared in challenge plates as follows: 175 μl of TSB were transferred in each row of a 96-well microtiter plate, except for the first row, according to the number of microbial strains to treat. In the first row of the plate, the antimicrobials were diluted to their respective working concentrations in a final volume of 350 μl of TSB. From the first row, 175 μl of the antimicrobial dilutions were then transferred to the second row of the plate and further serially diluted to the bottom of the plate. The same procedure was followed to prepare the controls, except that instead of the antimicrobials an equivalent volume of the respective vehicles were used. The biofilms were allowed to form for 24 h and then washed twice with 100 μl of sterile saline buffer and a total of 150 μl of the antimicrobial and control dilutions were transferred from the challenge plate to the corresponding wells of the biofilm plate. The challenged biofilms were then incubated for an additional 24 h at 37° C. After the challenge period, the antimicrobial dilutions were removed and the biofilms were carefully washed three times with 150 μl of sterile saline buffer. A total of 100 μl of TSB supplemented with 0.025% of triphenyl-tetrazolium chloride (TTC, Sigma) were then added to each well of the plate and further incubated at 37° C. for 5h. The results were then assessed by monitoring the development (or not) of red formazan (red colour), denoting the retention of metabolic activity by bacterial cells (Moussa et al., 2013, J. Mycol., Vol. 2013; Perez et al., 2010, Lett. Appl. Microbiol., Vol. 51, p 331-337). The medium was then removed and 200 μl of an ethanol:acetone (70:30) mixture was added to the wells and incubated O/N in order to extract the red formazan. The amount of extracted dye, reflecting the degree of bacterial cell metabolic activity, was then quantified by spectrophotometric readings at 492 nm.

[2] = tested on: S. aureus ATTC 29213 biofilm; experiment: as above; format: cell-based, Staphylococcus aureus; conditions: for MIC50: individual component
Experimental: as §1, §2, §3

[3] = tested on: S. aureus ATTC 33591 biofilm; experiment: as above; format: cell-based, Staphylococcus aureus; conditions: for MIC50 of the component in combination / MIC50: ATTC 33591, biofilm; for MIC50: individual component
Experimental: as §1, §2, §3

[4] = tested on: S. aureus USA 300 biofilm; experiment: as above; format: cell-based, Staphylococcus aureus
Experimental: as §1, §2, §3

S. haemoliticus NVH 409 = experiment: organism not typed; format: cell-based
Experimental: (§4) Antimicrobial activity was measured using the AAMP assay (Wiegand et al., 2008, Nat. Protoc., Vol. 3(2), p 163-175).
Synergy testing was done with a microtiter plate checkerboard assay as previously described (Orhan et al., 2005, J. Clin. Microbiol., Vol. 43(1), p 140-143). Briefly, equal amounts of antimicrobial A were applied on microtiter plate 1 in wells A1-H1 and then diluted two-fold to wells 2-12. Similarly, equal amounts of antimicrobial B were applied on microtiter plate 2 in wells A1-A12 and diluted two-fold in wells B-H. Volumes of 50 μl of antimicrobial A from each well of microtiter plate 1 were transferred into microtiter plate 3, except for wells H1-H12. Similarly, the same volumes were transferred from microtiter plate 2 into plate 3, except for wells A1-A8. A 100 μl volume of 25 times diluted ON bacterial culture of MRSA was transferred into each well of plate 3. A 50 μl volume of pure broth was added into each well in lines H1-H12 and A1-A8 which were used to estimate MIC values of pure substances (blank).
Antimicrobial activity was measured using the AAMP assay as described in Example 2.
Synergy testing was performed as in Example 2.

[5] = tested on: lactococci, listeria and enterococci; experiment: MIC against other indicators (data not shown); format: cell-based
Experimental: as §4

MRSA ATCC 33521-lux = experiment: Agar plate spot assay, resistance development (FIG. 4); format: cell-based, Staphylococcus aureus; conditions: up to 72 h incubation at 37° C.
Experimental: Pure GarKS and PenG each at 50 μg, MP1 at 0.1 μg, were applied at the indicated spots. The pictures of the plates were taken after 24, 48 and 72 h of incubation at 37° C. Sections of the inhibition zones on the right show resistance development seen as small white dots (in the inhibition zones of GarKS and MP1).

S. aureus biofilms = experiment: BOAT followed by CFU counting; format: cell-based, Staphylococcus aureus; conditions: 5 mg/ml garvicin KS, 0.1 mg/ml micrococcin P1, 10 mg/ml penicillin G
Experimental: The procedure for the BOAT assay was repeated as described above except that instead of adding the TTC solution, the antimicrobial-challenged cells were resuspended in TSB and then serially diluted in TSB buffer. Serial dilutions of the bacterial cells were than plated on BHI agar plates and incubated at 37° C. for 24 h. The results were then assessed by direct counting of the developed colonies and the colony forming unit (CFU) was determined.

[6] = tested on: S. aureus ATTC 33591 biofilm; experiment: LIVE/DEAD biofilm staining, confocal microscopy; format: cell-based, Staphylococcus aureus; conditions: data not shown
[7] = Staphylococcus aureus, ATTC10832BIOFILM, read-out: MIC50
[8] = garvicin KS + micrococcin P1 + penicillin G
[9] = Staphylococcus aureus, ATTC29213BIOFILM, read-out: MIC50
[10] = Staphylococcus aureus, ATTC33591BIOFILM, read-out: MIC50
[11] = Staphylococcus aureus, USA300, individual component, read-out: MIC50

| Molecule | MIC50 [1, 7] | MIC50 of the component in combination ([1]; garvicin KS + micrococcin P1) | MIC50 of the component in combination [1, 8] | MIC50 [2, 9] | MIC50 of the component in combination ([2]; garvicin KS + micrococcin P1) | MIC50 of the component in combination [2, 8] | MIC50 of the component in combination ([3]; garvicin KS + micrococcin P1) | MIC50 of the component in combination [3, 8] | MIC50 [3, 10] | MIC50 [4, 11] | MIC50 of the component in combination ([4]; garvicin KS + micrococcin P1) | MIC50 of the component in combination [4, 8] | MIC values, range [5] | resistance development on agar plates (MRSA ATCC 33521-lux) | MIC50 of the component in combination ([1]; garvicin KS + penicillin G) | MIC50 of the component in combination ([2]; garvicin KS + penicillin G) | MIC50 of the component in combination ([3]; garvicin KS + penicillin G) | MIC50 of the component in combination ([4]; garvicin KS + penicillin G) | cell viability, LogCFU after BOAT (S. aureus biofilms) | LIVE/DEAD staining pattern [6] | other results |
| --- | --- | --- | --- | --- | --- | --- | --- | --- | --- | --- | --- | --- | --- | --- | --- | --- | --- | --- | --- | --- | --- |
| C/C=C(\NC(=O)c1csc(-c2csc(-c3ccc4c(n3)-c3csc(n3)[C@H]([C@@H](C)O)NC(=O)c3csc(n3)[C@H](C(C)C)NC(=O)c3csc(n3)/C(=C/C)NC(=O)[C@H]([C@@H](C)O)NC(=O)c3csc-4n3)n2)n1)C(=O)NC[C@@H](C)O [MP1, micrococcin P1] | > 100 µg/mL | 25 µg/mL | 3.1 µg/mL | > 100 µg/mL | 25 µg/mL | 6.3 µg/mL | >100 µg/mL | 100 µg/mL | > 100 µg/mL | > 100 µg/mL | 100 µg/mL | 100 µg/mL | 1 to 10 µg/mL | resistant colonies of MRSA appeared within the inhibition zones |  |  |  |  |  |  | MIC (S. haemoliticus NVH 409; S. haemoliticus NVH 409, read-out: MIC, single antimicrobial): 1.25 µg/mL |
| CC1(C)S[C@@H]2[C@H](NC(=O)Cc3ccccc3)C(=O)N2[C@H]1C(=O)O [Penicillin G] | 10000 µg/mL |  | 310 µg/mL | 10000 µg/mL |  | 630 µg/mL |  | 10000 µg/mL | > 10000 µg/mL | > 10000 µg/mL |  | 10000 µg/mL |  |  | 630 µg/mL | 2500 µg/mL | >10000 µg/mL | >10000 µg/mL | reduction in the viability of the non-MRSA strains | increased resistance |  |
| MKFKFNPTGTIVKKLTQYEINWYKQQYGRYPWERPVA [Hybrid K1-EJ] |  |  |  |  |  |  |  |  |  |  |  |  |  |  |  |  |  |  |  |  | MIC, single antimicrobial (S. haemoliticus NVH 409): >25 µg/mL; MIC of MP1 in comb. with the labelled antimicrobial (S. haemoliticus NVH 409; S. haemoliticus NVH 409): 0.08 µg/mL; MIC of the labelled antimicrobial in comb. with MP1 (S. haemoliticus NVH 409; S. haemoliticus NVH 409): 3 µg/mL |
| Garvicin KS: three-peptide leaderless bacteriocin (GarA, GarB, GarC; SEQ ID NO:6-8), peptides synthesized (peptide, listed as Lactococcus garvieae) chain 1: MGAIIKAGAKIVGKGVLGGGASWLGWNVGEKIWK chain 2: MGAIIKAGAKIIGKGLLGGAAGGATYGGLKKIFG chain 3: MGAIIKAGAKIVGKGALTGGGVWLAEKLFGGK |  | 1250 µg/mL | 160 µg/mL |  | 1250 µg/mL | 310 µg/mL | >5000 µg/mL | 5000 µg/mL |  |  | 5000 µg/mL | 5000 µg/mL | 1 to 20 µg/mL | resistant colonies of MRSA appeared within the inhibition zones | 310 µg/mL | 1250 µg/mL | >5000 µg/mL | >5000 µg/mL | most dramatic reduction in LogCFU levels for all the strains | increased resistance | MIC50 [1]: 2500 µg/mL; MIC50 [2]: 1250 µg/mL; MIC increase compared to the planktonic state ([3]; ATCC 33591 biofilm): over 100 fold; MIC50 [3]: >5000 µg/mL; MIC50 ([4]; individual component): 2500 µg/mL |
